The numbers were not newly measured in patent publication US20260137744A1, “MELATONIN-ENRICHED COMPOSITION OF PISTACIA VERA (PISTACHIO) AND A METHOD OF PREPARATION THEREOF” (Network Nutrition Pty Limited, priority 2024, published 2026), which cites them from elsewhere.

Consider `COc1ccc2[nH]cc(CCNC(C)=O)c2c1` [melatonin], for which the “peak concentration in the bloodstream, time after oral dosage” value (after oral dosage) is “approximately 50 minutes”. In addition, the bioavailability entry (oral melatonin, average, varies significantly among individuals) is “around 15%”.
